Reference: PMC6001238, “Iterative Chemical Engineering of Vancomycin Leads to Novel Vancomycin Analogs With a High in Vitro Therapeutic Index” (Frontiers in Microbiology, 2018)
In brackets after ≈: the same amount, converted by molar mass. Where two headings read alike, the source gives them in different places.

Tests used:
MRSA KS6 = test: MIC, broth microdilution, MRSA KS6; format: cell-based, Staphylococcus aureus
Procedure, shortened: (§1)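 Following CLSI antimicrobial susceptibility standards, organisms were tested by broth microdilution. Controls comprised ultrapure water plus broth left uninoculated. For a single condition, 10 μM vancomycin (final) accompanied the analog or control agent.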

[1] = tested on: human T-lymphocyte (CEM) cells; test: Cytostatic activity, CEM cell proliferation; format: cell-based; conditions: mean ± SD of three experiments; highest concentration tested 250 µM; 3 days; read-out: Toxicity (IC50) CEM
Procedure, shortened: (§2)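 Readout: Coulter cell number after drug exposure at 37°C. Durations differ by line (L1210 2 days; CEM 3 days; HeLa 4 days). Stock suspension 300,000–500,000 cells/mL, diluted by mixing with compound. Endpoint: IC50 vs negative control.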

MRSA KS1 = test: MIC, broth microdilution, MRSA KS1; format: cell-based, Staphylococcus aureus
Procedure, shortened: as §1

[2] = tested on: L1210, CEM and HeLa cell lines; test: Cytostatic activity, average or summary over L1210, CEM and HeLa; format: cell-based; conditions: average of L1210, CEM and HeLa; read-out: Toxicity (IC50) Average
Procedure, shortened: as §2

E. faecalis VRE 37 = test: MIC, broth microdilution, vancomycin-resistant E. faecalis VRE 37 (VanA); format: cell-based, Enterococcus faecalis; conditions: Enterococcus faecalis VRE 37 (vancomycin-resistant); read-out: MIC
Procedure, shortened: as §1

E. faecalis VRE 6 = test: MIC, broth microdilution, vancomycin-resistant E. faecalis VRE 6 (VanA); format: cell-based, Enterococcus faecalis; conditions: for MIC: read-out: MIC
Procedure, shortened: as §1

[3] = tested on: Murine leukemia (L1210) cells; test: Cytostatic activity, L1210 cell proliferation; format: cell-based; conditions: mean ± SD of three experiments; highest concentration tested 250 µM; 2 days; read-out: Toxicity (IC50) L1210
Procedure, shortened: as §2

E. faecalis VSE 1 = test: MIC, broth microdilution, vancomycin-sensitive E. faecalis (VSE 1); format: cell-based, Enterococcus faecalis; conditions: for MIC: read-out: MIC
Procedure, shortened: as §1

E. coli XL-1 blue MRF' = test: MIC, broth microdilution, E. coli XL-1 blue MRF'; format: cell-based, Escherichia coli; conditions: E. coli XL-1 blue MRF'
Protocol: (§3) The minimum inhibitory concentration (MIC) was determined using the broth microdilution method according to the antimicrobial susceptibility testing standards of the clinical and laboratory standards institute ([Clinical and Laboratory Standards Institute [CLSI], 2012]). Ultrapure water and non-inoculated broth were used as controls. In one case, a final concentration of 10 μM vancomycin was included with the vancomycin analog or control antibiotic.

[4] = tested on: S. aureus VSSA (ATCC 6538); test: MIC, broth microdilution, vancomycin-sensitive S. aureus (VSSA/MSSA, ATCC 6538); format: cell-based, Staphylococcus aureus
Procedure, shortened: as §1

E. faecalis VRE 53 = test: MIC, broth microdilution, vancomycin-resistant E. faecalis VRE 53 (VanA); format: cell-based, Enterococcus faecalis; conditions: for MIC: read-out: MIC
Procedure, shortened: as §1

S. aureus VRSA = test: MIC, broth microdilution, vancomycin-resistant S. aureus (VRSA); format: cell-based, Staphylococcus aureus
Procedure, shortened: as §1

MRSA KS89 = test: MIC, broth microdilution, MRSA KS89; format: cell-based, Staphylococcus aureus
Procedure, shortened: as §1

S. aureus VISA/HIP5827 = test: MIC, broth microdilution, vancomycin-intermediate S. aureus VISA HIP5827; format: cell-based, Staphylococcus aureus
Procedure, shortened: as §1

MRSA KS2 = test: MIC, broth microdilution, MRSA KS2; format: cell-based, Staphylococcus aureus
Procedure, shortened: as §1

E. faecalis VRE 29 = test: MIC, broth microdilution, vancomycin-resistant E. faecalis VRE 29 (VanA); format: cell-based, Enterococcus faecalis
Procedure, shortened: as §1

[5] = tested on: human cervix carcinoma (HeLa) cells; test: Cytostatic activity, HeLa cell proliferation; format: cell-based; conditions: mean ± SD of three experiments; highest concentration tested 250 µM; 4 days; read-out: Toxicity (IC50) HeLa
Procedure, shortened: as §2

B. subtilis PSB3 = test: MIC, broth microdilution, B. subtilis PSB3; format: cell-based, Bacillus subtilis
Protocol: as §3

[6] = ratio of MIC of vancomycin and MIC of analogue

C#Cc1ccc(-c2ccc(C(=O)NCCCNC(=O)[C@H]3NC(=O)[C@H]4NC(=O)[C@H](NC(=O)[C@@H]5NC(=O)[C@H](CC(N)=O)NC(=O)[C@H](NC(=O)[C@@H](CC(C)C)NC)[C@H](O)c6ccc(c(Cl)c6)Oc6cc5cc(c6O[C@@H]5O[C@H](CO)[C@@H](O)[C@H](O)[C@H]5O[C@H]5C[C@](C)(N)[C@H](O)[C@H](C)O5)Oc5ccc(cc5Cl)[C@H]4O)c4ccc(O)c(c4)-c4c(O)cc(O)cc43)cc2)cc1 [Vanc-S]
MIC-fold improvement vs. vancomycin (MRSA KS6; MRSA KS6, ratio of MIC of vancomycin and MIC of analogue): 2
MIC (MRSA KS6; Staphylococcus aureus MRSA KS6, read-out: MIC): 0.39 µM (≈ 0.667 µg/mL)
IC50 [1]: 5.6 ± 1.1 µM
MIC-fold improvement vs. vancomycin (MRSA KS1; MRSA KS1, ratio of MIC of vancomycin and MIC of analogue): >8
MIC (MRSA KS1; Staphylococcus aureus MRSA KS1, read-out: MIC): <0.10 µM
IC50 [2]: 29 µM
MIC (E. faecalis VRE 37): 25 µM (≈ 42.7 µg/mL)
MICvanc/MICi (E. faecalis VRE 6; E. faecalis VRE 6, ratio of MIC of vancomycin and MIC of analogue): 256
MIC (E. faecalis VRE 6; E. faecalis VRE 6): 0.78 µM (≈ 1.33 µg/mL)
MIC (E. faecalis VRE 6; Enterococcus faecalis VRE 6 (vancomycin-resistant)): 0.78 µM (≈ 1.33 µg/mL)
MIC-fold improvement vs. vancomycin (E. faecalis VRE 6; VRE 6, ratio of MIC of vancomycin and MIC of analogue): 256
IC50 [3]: 10 ± 4 µM
MICvanc/MICi (E. faecalis VSE 1; E. faecalis VSE 1, ratio of MIC of vancomycin and MIC of analogue): 64
MIC (E. faecalis VSE 1; E. faecalis VSE 1): 0.03 µM (≈ 0.0513 µg/mL)
MIC (E. faecalis VSE 1; Enterococcus faecalis VSE 1 (vancomycin-sensitive)): 0.03 µM (≈ 0.0513 µg/mL)
MIC-fold improvement vs. vancomycin (E. faecalis VSE 1; VSE 1, ratio of MIC of vancomycin and MIC of analogue): 64
MIC (E. coli XL-1 blue MRF'): 50 µM (≈ 85.5 µg/mL)
MICvanc/MICi (E. coli XL-1 blue MRF'; [6]): 2
MIC ([4]; Staphylococcus aureus VSSA, read-out: MIC): 0.10 µM (≈ 0.171 µg/mL)
MIC-fold improvement vs. vancomycin ([4]; VSSA, ratio of MIC of vancomycin and MIC of analogue): 8
MICvanc/MICi (E. faecalis VRE 53; E. faecalis VRE 53, ratio of MIC of vancomycin and MIC of analogue): 128
MIC (E. faecalis VRE 53; E. faecalis VRE 53): 3.13 µM (≈ 5.35 µg/mL)
MIC (E. faecalis VRE 53; Enterococcus faecalis VRE 53 (vancomycin-resistant)): 3.13 µM (≈ 5.35 µg/mL)
MIC-fold improvement vs. vancomycin (E. faecalis VRE 53; VRE 53, ratio of MIC of vancomycin and MIC of analogue): 128
MIC (S. aureus VRSA; Staphylococcus aureus VRSA, read-out: MIC): 0.78 µM (≈ 1.33 µg/mL)
MIC-fold improvement vs. vancomycin (S. aureus VRSA; VRSA, ratio of MIC of vancomycin and MIC of analogue): 128
MIC-fold improvement vs. vancomycin (MRSA KS89; MRSA KS8, ratio of MIC of vancomycin and MIC of analogue): 4
MIC (MRSA KS89; Staphylococcus aureus MRSA KS8, read-out: MIC): 0.20 µM (≈ 0.342 µg/mL)
MIC (S. aureus VISA/HIP5827; Staphylococcus aureus VISA/HIP5827, read-out: MIC): 0.39 µM (≈ 0.667 µg/mL)
MIC-fold improvement vs. vancomycin (S. aureus VISA/HIP5827; VISA/HIP5827, ratio of MIC of vancomycin and MIC of analogue): 16
MIC-fold improvement vs. vancomycin (MRSA KS2; MRSA KS2, ratio of MIC of vancomycin and MIC of analogue): 4
MIC (MRSA KS2; Staphylococcus aureus MRSA KS2, read-out: MIC): 0.20 µM (≈ 0.342 µg/mL)
MIC (E. faecalis VRE 29; Enterococcus faecalis VRE 29 (vancomycin-resistant), read-out: MIC): 6.25 µM (≈ 10.7 µg/mL)
MIC-fold improvement vs. vancomycin (E. faecalis VRE 29; VRE 29, ratio of MIC of vancomycin and MIC of analogue): 64
IC50 [5]: 70 ± 8 µM
MIC (B. subtilis PSB3): 0.20 µM (≈ 0.342 µg/mL)
MICvanc/MICi (B. subtilis PSB3; [6]): 2
